Assay results reported in patent EP2982368A1, “Small molecule compounds displacing focal adhesion core components” (Universität Konstanz, priority 2014, dated 2016).
“Also recorded” adds a separate entry of the source.

Columns and labels:
FAK/Paxillin = molecular target: T1, FAK/Paxillin (Mus musculus, UniProt P34152+Q8VI36); assay: FAK/Paxillin displacement by structurally related compounds (FootLocker series, confocal microscopy); type: cell-based
T1 construct: expressed in transfected cells; host or cells: mouse fibroblasts stably expressing GFP-FAK
T1 sequence (P34152 whole entry): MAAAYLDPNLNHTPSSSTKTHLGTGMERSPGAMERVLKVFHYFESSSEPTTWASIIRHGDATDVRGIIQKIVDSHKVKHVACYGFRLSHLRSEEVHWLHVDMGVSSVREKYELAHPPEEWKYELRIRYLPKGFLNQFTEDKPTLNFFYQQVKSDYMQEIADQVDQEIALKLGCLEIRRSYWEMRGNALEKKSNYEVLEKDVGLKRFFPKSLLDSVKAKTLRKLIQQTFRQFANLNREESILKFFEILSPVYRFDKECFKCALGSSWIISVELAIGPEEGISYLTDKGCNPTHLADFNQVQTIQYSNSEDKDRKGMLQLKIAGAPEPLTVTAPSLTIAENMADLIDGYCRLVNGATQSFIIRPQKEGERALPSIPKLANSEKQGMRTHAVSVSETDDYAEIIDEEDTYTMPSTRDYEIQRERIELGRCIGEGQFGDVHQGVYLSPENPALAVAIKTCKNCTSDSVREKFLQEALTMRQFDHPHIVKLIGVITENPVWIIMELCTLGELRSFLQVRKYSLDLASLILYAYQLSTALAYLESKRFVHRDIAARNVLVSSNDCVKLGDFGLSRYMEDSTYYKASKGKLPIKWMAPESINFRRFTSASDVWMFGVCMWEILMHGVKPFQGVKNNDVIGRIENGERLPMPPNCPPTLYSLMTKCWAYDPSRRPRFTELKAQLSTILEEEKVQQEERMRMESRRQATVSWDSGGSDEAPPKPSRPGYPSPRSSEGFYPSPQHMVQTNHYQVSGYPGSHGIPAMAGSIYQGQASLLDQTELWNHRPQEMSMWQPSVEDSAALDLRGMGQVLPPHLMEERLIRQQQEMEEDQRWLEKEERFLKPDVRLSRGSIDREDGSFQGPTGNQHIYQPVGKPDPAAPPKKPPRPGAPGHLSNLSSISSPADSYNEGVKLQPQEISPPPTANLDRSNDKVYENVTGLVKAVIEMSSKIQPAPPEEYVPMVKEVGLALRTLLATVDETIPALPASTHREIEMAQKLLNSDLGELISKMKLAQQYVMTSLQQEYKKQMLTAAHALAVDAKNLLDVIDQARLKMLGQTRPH
T1 sequence (Q8VI36 whole entry): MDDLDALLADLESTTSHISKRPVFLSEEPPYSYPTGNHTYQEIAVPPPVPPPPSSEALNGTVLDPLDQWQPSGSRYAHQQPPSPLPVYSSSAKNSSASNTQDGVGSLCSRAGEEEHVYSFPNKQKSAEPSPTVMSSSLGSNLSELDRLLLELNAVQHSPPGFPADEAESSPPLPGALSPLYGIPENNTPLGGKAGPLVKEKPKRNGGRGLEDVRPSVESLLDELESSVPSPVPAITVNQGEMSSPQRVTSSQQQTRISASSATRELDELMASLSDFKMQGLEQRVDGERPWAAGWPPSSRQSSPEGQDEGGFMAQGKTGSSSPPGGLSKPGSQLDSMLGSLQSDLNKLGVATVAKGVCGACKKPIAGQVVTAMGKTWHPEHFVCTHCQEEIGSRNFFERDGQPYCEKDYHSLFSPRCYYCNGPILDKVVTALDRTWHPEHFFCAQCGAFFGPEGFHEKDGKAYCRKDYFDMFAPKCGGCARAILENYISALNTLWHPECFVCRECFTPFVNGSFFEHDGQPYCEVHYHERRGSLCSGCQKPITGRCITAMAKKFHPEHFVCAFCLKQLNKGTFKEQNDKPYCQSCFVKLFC
Description: To determine whether compounds structurally related to Mb31 and Mb36 are likewise suitable to interfere with FAK localization at focal adhesions, mouse fibroblasts stably expressing GFP-FAK were treated for 30 min with 1, 10 or 20 µM of the following compounds: trans-3-hydroxy-β-nitrostyrene (THBN), trans-4-Chloro-β-nitrostyrene (T4CN), trans-β-nitrostyrene (TBN), 4-chlorocinnamic acid (4CA), and trans-3-(4-bromothiophen-2-yl)acrylic acid (T34BA) (Figures 16 and 17). The cells were analyzed by confocal microscopy for GFP-FAK localization. DMSO treatment served as a vehicle control. […] Additional substituents at the aromatic structures, such as halogen atoms or hydroxy groups may contribute to the reactivity of the compound, but are not essential. Based on these findings, the inventors have extended their structure activity-relationship studies and synthesized additional related compounds, which, similar to Mb31, displace FAK and paxillin at concentrations below 10µM (++), displace FAK and paxillin at concentrations above 10 µM (+), or lack FAK and paxillin displacing activity (-). All these substances were then also nicknamed in the FLocker terminology, resulting in FLocker1 - FLocker24 (Table 2). Table 2: Overview of FootLocker nomenclature, their chemical notation/structure and the activity towards FAK/Paxillin displacement

[1] = system: GFP-FAK mouse embryonic fibroblasts; assay: MTT assay (cell viability); type: cell-based; conditions: 5 h compound exposure
Description: Image J was used to automatically quantify FAK-containing focal adhesions due to local maxima of fluorescence intensity in the GFP-channel (5 to 70 pixel). The number of cells was automatically counted in the Hoechst channel. To test reproducibility of the system 40 control wells were quantified wherein four positions for each well were imaged. […] GFP-FAK mouse embryonic fibroblasts were seeded on fibronectin and incubated for 1 h with the indicated concentrations of the small compounds, respectively. […] GFP-FAK mouse embryonic fibroblasts were seeded on fibronectin and serum-starved overnight. The indicated concentrations of Mb31 were applied for 30 min. Cells were lysed and analyzed for paxillin and FAK protein level as well as FAK Tyr397 phosphorylation. […] The purified kinase domain of FAK was incubated with increasing amounts of Mb31 for 1 h at 30°C together with poly-Glu-Tyr as a FAK substrate. […] Cell viability was assessed by MTT assay. […] Migration was recorded from cells that were cultured without serum (A), with serum (B) or with serum in the presence of 3 µM Mb31 (C). […] Mouse embryonic fibroblasts (MEFs) were transfected with talin-mCherry and talin dynamics analyzed in focal adhesions using fluorescence recovery after photobleaching (FRAP). […] (C) Wound closure was microscopically analyzed and evaluated using ImageJ software. […]

Row | compounds showing the most prominent effect on protein-protein interactions at focal adhesion site (FAK/Paxillin) | Structure (SMILES) | disruption of protein-protein interactions at focal adhesion site (FAK/Paxillin) | cell viability / toxicity ([1]; listed as Mb31) | cell viability / toxicity [1]
1 | most prominent effect | O=[N+]([O-])C=Cc1cc(Br)cs1 [FootLocker 1, 4-bromo-2-(2-nitrovinyl)thiophene] | efficiently disrupt protein-protein interactions at focal adhesion site | do not impair cell viability; also recorded: minor toxicity | –
2 | most prominent effect | Nc1ccc(SC(C[N+](=O)[O-])c2ccc(Cl)cc2)cc1 (stereo not drawn) [FootLocker 2, 4-{[1-(4-chlorophenyl)-2-nitroethyl]thio}aniline] | efficiently disrupt protein-protein interactions at focal adhesion site | – | do not impair cell viability
